The values that follow come from ChEMBL document CHEMBL5223177, “Pyrazole Ureas as Low Dose, CNS Penetrant Glucosylceramide Synthase Inhibitors for the Treatment of Parkinson's Disease” (ACS Med Chem Lett, 2023).

The structures appear in SMILES notation. Calls of active or inactive are those of the source. The rule behind the calls is not given here.

A word on the logD: it is the decadic logarithm of the distribution of all forms, ionised or not, between an organic phase and buffer at a given pH. The term CLint scaled denotes a measure of how fast metabolising enzymes remove a compound, apart from limits set by blood flow. In general, efflux ratio refers to a quotient of directional permeabilities that is used to spot active efflux. Usually IC50 stands for the concentration that gives 50% inhibition. Usually clearance stands for the volume of plasma or blood freed of the substance per unit of time. The fraction unbound is free concentration divided by total concentration. As a reminder, the MRT is a mean duration of stay, worked out from the concentration-time curve. The term bioavailability denotes the share of a dose that reaches the circulation, judged against a reference dose that is usually intravenous. What is called half-life is the time in which the quantity being followed falls by half. A word on the EC50: it is the concentration at which the effect is half-maximal.

Series [1] can be described thus: Unbound volume of distribution at steady state in rat. Type of series: ADME. Particulars: in vivo.
The nature of series [2]: Lipophilicity, logD of compound by HPLC method. Type of series: physicochemical.
Series [3] in a line: Protection against PFFs induced alpha-synuclein aggregation in human iPSC derived neurons assessed as reduction in phosphorylated S129 alpha-synuclein level at 1000 nM pretreated for 1 day followed by PFFs stimulation and measured after 14 days by immunocytochemistry analysis. The format is functional, Neuron. Further details: scale not given: the % may be the effect or the level left. Particulars: time 15 day.

The nature of series [4]: Intrinsic clearance in dog. The format is ADME, Canis lupus familiaris.
The target of series [5] is T1, mouse BCRP (ABCG2) (Mus musculus, UniProt Q7TMS5).
T1 sequence (Q7TMS5 whole entry): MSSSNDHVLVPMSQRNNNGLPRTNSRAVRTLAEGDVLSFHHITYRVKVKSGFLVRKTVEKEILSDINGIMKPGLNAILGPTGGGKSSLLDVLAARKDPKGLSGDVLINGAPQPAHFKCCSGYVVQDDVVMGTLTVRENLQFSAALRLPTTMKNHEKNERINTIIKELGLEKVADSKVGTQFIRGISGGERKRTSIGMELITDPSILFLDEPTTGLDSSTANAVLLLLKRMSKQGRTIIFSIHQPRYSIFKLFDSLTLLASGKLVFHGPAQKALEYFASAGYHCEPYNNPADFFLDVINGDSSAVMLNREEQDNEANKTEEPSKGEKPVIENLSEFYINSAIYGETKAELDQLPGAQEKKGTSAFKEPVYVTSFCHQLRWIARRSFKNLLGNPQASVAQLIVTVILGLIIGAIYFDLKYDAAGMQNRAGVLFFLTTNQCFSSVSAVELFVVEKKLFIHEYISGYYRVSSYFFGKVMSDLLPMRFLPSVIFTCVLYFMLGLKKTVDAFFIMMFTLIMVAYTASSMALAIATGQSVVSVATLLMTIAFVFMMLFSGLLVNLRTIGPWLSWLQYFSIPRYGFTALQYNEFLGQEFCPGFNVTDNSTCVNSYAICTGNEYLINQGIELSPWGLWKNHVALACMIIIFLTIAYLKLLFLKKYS
As to the kind of experiment: Substrate activity at mouse BCRP assessed as efflux ratio at 1 uM. As to conditions: not told. The format is ADME.

Series [6] deals with Voltage-gated inwardly rectifying potassium channel KCNH2 (Homo sapiens, UniProt Q12809). In words: Inhibition of human ERG. The format is toxicity.
Series [7] concerns the target Cytochrome P450 3A4 (Homo sapiens, UniProt P08684). In words: Inhibition of CYP3A4 (unknown origin). The format is ADME.
The nature of series [8]: Clearance in dog. Particulars: in vivo. The format is ADME, Canis lupus familiaris.
A short description of series [9]: Unbound fraction in rat plasma. Type of series: ADME, cell-free.
Series [10] can be described thus: Protection against PFFs induced alpha-synuclein aggregation in human iPSC derived neurons assessed as reduction in phosphorylated S129 alpha-synuclein level pretreated for 1 day followed by PFFs stimulation and measured after 14 days by immunocytochemistry analysis. The format is functional, cell-based. As to conditions: Neuron.
Series [11] addresses Cytochrome P450 2D6 (Homo sapiens, UniProt P10635). In words: Inhibition of CYP2D6 (unknown origin). Type of series: ADME.
The nature of series [12]: Mean residence time in rat at 5 to 10 mg/kg, po or 0.05 to 2 mg/kg, iv. The format is ADME, organism-based. Particulars: in vivo, dose 5-10 mg/kg.
Series [13] in a line: Unbound brain-to-plasma concentration ratio in rat at 5 mg/kg, po after 2 hrs. Type of series: ADME, organism-based. Particulars: read-out: K(p,uu,brain).
Series [14] is described as follows: Intrinsic clearance in rat. Type of series: ADME.
Series [15] in a line: Clearance in rat. Type of series: ADME. Particulars: in vivo.
Series [16] in a line: Bioavailability in dog. Particulars: in vivo. The format is ADME, organism-based, Canis lupus familiaris.
Series [17] is described as follows: Half life in rat. The format is ADME. Particulars: in vivo.
In series [18] the target is Cytochrome P450 2C9 (Homo sapiens, UniProt P11712). In words: Inhibition of CYP2C9 (unknown origin). Type of series: ADME.
Series [19] concerns the target T2, Nuclear receptor subfamily 1 group I member 2 (Homo sapiens, UniProt O75469).
T2 sequence (O75469 whole entry): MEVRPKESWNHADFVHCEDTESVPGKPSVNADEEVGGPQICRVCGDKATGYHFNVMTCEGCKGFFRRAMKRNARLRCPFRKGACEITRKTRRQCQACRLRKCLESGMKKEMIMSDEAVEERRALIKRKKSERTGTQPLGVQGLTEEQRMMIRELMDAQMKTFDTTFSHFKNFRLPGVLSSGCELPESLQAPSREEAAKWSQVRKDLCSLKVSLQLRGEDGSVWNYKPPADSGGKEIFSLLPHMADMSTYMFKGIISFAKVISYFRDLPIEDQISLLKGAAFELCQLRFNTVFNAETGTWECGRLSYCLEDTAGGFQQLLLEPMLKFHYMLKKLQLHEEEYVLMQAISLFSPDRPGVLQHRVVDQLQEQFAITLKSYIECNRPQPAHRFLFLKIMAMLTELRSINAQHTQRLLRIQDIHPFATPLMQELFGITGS
As to the kind of experiment: Activation of PXR (unknown origin).

Series [20] in a line: Unbound volume of distribution at steady state in dog. The format is ADME, Canis lupus familiaris. As to conditions: in vivo.
The nature of series [21]: Half life in dog. Particulars: in vivo. Type of series: ADME, Canis lupus familiaris.
The target in series [22] is T3, Ceramide glucosyltransferase (Mus musculus, UniProt O88693).
T3 sequence (O88693 whole entry): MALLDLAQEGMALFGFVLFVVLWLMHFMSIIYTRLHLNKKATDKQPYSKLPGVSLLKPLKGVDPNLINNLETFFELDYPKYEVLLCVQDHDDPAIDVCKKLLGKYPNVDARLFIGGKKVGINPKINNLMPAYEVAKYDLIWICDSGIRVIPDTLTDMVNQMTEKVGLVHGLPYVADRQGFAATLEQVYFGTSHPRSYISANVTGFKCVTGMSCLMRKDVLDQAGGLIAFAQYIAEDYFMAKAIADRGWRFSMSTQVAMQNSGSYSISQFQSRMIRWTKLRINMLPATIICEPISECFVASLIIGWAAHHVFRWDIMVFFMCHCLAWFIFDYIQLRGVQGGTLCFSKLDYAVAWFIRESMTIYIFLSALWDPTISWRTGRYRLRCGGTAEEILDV
As to the kind of experiment: Inhibition of GCS in mouse fibroblast. The format is cell-based.

Series [23] deals with T3, Ceramide glucosyltransferase. In words: (§1) In vivo inhibition of GCS in C57 mouse assessed as reduction in brain GlcCer d18:1/18:0 concentration measured after 8 hrs by LC-MS/MS method. The format is functional.
The target of series [24] is T4, Ceramide glucosyltransferase (Mus musculus) (UniProt O88693).
T4 sequence (whole entry): T3 sequence (O88693 whole entry)
The description is as §1. Type of series: functional.

Series [25] has as its target T4, Ceramide glucosyltransferase (Mus musculus). In words: In vivo inhibition of GCS in C57 mouse assessed as reduction in brain GlcCer d18:1/18:0 concentration at 30 to 100 mg/kg, po measured after 8 hrs by LC-MS/MS method. As to conditions: dose 30-100 mg/kg. The format is functional, organism-based.

Cytochrome P450 2C9, sequence (P11712 whole entry): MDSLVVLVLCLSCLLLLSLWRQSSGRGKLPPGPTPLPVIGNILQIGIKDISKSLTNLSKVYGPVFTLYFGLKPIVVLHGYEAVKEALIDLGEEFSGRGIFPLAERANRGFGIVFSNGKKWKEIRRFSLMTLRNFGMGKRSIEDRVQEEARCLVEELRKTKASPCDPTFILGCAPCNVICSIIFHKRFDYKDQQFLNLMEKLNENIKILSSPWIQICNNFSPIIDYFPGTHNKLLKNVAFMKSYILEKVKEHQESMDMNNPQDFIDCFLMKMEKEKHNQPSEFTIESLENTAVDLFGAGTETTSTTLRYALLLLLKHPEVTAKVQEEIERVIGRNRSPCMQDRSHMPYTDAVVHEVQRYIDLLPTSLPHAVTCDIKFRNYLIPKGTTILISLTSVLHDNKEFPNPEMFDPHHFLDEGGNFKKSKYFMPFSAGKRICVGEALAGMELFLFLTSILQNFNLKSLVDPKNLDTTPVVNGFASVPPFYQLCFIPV
Voltage-gated inwardly rectifying potassium channel KCNH2, sequence (Q12809 whole entry): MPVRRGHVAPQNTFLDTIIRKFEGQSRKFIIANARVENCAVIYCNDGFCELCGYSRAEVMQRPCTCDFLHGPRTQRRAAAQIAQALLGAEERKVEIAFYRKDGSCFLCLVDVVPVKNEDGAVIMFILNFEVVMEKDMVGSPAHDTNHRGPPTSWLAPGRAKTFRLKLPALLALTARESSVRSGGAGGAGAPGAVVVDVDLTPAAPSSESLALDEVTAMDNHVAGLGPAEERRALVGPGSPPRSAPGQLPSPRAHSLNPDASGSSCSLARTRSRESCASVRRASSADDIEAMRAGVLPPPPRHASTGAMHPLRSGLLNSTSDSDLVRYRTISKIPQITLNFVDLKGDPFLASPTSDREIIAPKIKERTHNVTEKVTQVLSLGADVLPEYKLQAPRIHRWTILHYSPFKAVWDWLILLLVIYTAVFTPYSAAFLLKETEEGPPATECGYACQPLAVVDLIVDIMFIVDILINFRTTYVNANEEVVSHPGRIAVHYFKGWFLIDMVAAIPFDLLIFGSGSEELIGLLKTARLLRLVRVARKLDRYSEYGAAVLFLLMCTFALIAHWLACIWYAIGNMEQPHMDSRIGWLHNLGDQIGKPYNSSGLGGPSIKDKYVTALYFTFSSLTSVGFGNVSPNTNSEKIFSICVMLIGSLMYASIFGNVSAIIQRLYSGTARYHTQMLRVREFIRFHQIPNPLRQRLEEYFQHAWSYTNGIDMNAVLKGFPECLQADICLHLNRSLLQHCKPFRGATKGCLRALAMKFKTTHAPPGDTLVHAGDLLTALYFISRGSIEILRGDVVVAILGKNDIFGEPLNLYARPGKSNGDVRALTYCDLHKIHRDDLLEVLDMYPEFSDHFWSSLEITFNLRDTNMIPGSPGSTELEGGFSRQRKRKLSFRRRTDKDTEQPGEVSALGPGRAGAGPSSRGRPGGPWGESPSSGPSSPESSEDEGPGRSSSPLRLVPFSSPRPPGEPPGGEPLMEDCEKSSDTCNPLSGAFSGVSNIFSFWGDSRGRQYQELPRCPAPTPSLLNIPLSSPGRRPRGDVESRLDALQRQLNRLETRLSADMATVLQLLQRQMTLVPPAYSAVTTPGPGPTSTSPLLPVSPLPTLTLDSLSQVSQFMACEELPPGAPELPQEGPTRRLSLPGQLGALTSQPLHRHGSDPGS
Cytochrome P450 3A4, sequence (P08684 whole entry): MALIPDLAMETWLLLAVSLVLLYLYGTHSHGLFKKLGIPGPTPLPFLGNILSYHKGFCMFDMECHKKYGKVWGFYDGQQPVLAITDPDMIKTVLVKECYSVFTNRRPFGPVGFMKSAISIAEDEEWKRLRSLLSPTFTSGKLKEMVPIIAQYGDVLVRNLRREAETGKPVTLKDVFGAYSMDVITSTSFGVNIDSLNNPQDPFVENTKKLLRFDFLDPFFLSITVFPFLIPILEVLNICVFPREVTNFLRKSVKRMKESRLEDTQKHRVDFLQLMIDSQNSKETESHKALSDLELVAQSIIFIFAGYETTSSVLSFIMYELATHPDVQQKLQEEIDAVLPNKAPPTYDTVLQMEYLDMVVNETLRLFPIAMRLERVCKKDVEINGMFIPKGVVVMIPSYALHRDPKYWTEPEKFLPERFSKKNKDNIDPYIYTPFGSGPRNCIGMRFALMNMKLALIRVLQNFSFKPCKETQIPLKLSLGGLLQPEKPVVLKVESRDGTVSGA
Cytochrome P450 2D6, sequence (P10635 whole entry): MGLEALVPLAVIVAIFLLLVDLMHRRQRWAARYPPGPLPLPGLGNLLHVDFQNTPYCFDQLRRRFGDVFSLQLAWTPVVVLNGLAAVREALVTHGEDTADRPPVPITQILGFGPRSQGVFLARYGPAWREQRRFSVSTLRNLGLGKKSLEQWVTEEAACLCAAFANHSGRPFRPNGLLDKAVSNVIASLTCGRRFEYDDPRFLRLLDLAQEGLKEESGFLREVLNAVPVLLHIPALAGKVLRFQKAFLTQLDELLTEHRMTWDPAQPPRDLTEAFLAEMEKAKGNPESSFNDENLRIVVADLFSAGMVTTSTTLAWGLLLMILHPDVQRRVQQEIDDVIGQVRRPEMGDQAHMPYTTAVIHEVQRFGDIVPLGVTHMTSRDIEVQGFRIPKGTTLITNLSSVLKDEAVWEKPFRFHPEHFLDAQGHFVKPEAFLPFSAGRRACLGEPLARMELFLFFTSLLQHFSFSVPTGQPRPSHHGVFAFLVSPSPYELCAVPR

In the case of `Cl.O=C(N1CCN2CCC1CC2)n1nc(-n2cc(C(F)(F)F)cn2)c2c1COCC2`, the fVdss is 16 L/kg in series [1] and 49 L/kg in series [20]. The compound further yielded a logD in [2] of 2.5. Moreover, the Activity in [3] is on record as 20%. The intrinsic clearance (CLint scaled) was found to be 75 mL/min/kg in series [4] and 55 mL/min/kg in series [14]. Moreover, in series [5], the efflux ratio at 1 µM was 1.3. For the same compound, the half-inhibitory concentration (IC50) in [6] was 4.1 µM; in series [7], more than 50 µM; in series [10], 0.017 µM; in series [11], more than 50 µM; in series [18] it was more than 50 µM; in series [22] it was 0.017 µM. The clearance in [8] came to 12 mL/min/kg; in series [15] it was 6.1 mL/min/kg. In addition, the fraction unbound in series [9] is 0.08. The compound further showed an MRT in series [12] of 5.3 h. In [13], the Kp uu at 2 h was 1.3. This compound came in with a bioavailability in series [16] of 48%. Besides, the half-life in series [17] is 3.4 h; in series [21], 8.2 h. The half-maximal effective concentration (EC50) in [19] was more than 30 µM.
For `O=C(N1CCN2CCC1CC2)n1nc(-c2ccc(F)cc2)c2c1COCC2`, the fVdss in series [1] came out at 17 L/kg; in series [20], 21 L/kg. In series [2], this compound returned a pH-dependent lipophilicity (logD) of 2.2. In addition, the intrinsic clearance (CLint scaled) turned out to be 6870 mL/min/kg in [4] and 90 mL/min/kg in [14]. In addition, the efflux ratio at 1 µM in series [5] came to 1.4. The IC50 in series [6] was 2 µM; in series [7], more than 50 µM; in series [11], more than 50 µM; in series [18], more than 50 µM; in [22] it was 0.021 µM. In addition, the results for the clearance in series [8] and in [15] were 30 mL/min/kg and 8.5 mL/min/kg, respectively. Further, the 50% effective concentration (EC50) was 0.32 µM in [23] and more than 30 µM in series [19]. Besides, in series [24], the Activity entry was “Dose-Dependent Effect”. The fEC50 in series [24] was 64 nM. In series [9], this compound displayed a fraction unbound of 0.11. Also, the mean residence time (MRT) in [12] came to 3.5 h. Besides, the Kp uu at 2 h in series [13] turned out to be 0.4. For the same compound, the bioavailability in series [16] came out at 21%. Further, the result in series [25] was Active. For the same compound, the half-life in series [17] was 2.8 h; in series [21], 2.4 h.
